The assay concerns patients. Briefly: randomised placebo-controlled double-blind study of deramciclane. The format is in vivo. As to conditions: for number of patients with decreased libido: placebo 2 out of 51, p=0.04, Chi-square-test. On the procedure: The effects of deramciclane were studied in a randomised placebo-controlled double-blind study. The subjects were randomly assigned to four parallel groups to receive one tablet twice daily (b.i.d) of a placebo, 5 mg (=10 mg/day), 15 mg (=30 mg/day), or 30 mg (=60 mg/day) deramciclane.
When analyzing the number of patients with decreased libido, 2 out of 51 patients on placebo experienced it, but none of the patients treated with deramciclane 15 mg b.i.d. (n=53) or 30 mg b.i.d.(n=54) experienced decreased libido (p=0.04, Chi-square-test). In addition, when the Udvalg for Kliniske Undersogelser (UKU) scale was used, 21% of 53 patients experienced orgastic dysfunction at the baseline but only 12% of them after 8-week treatment with deramciclane 15 mg b.i.d.

In the case of `CN(C)CCO[C@]1(c2ccccc2)C[C@H]2CC[C@]1(C)C2(C)C` [deramciclane, (1R,2S,4R)-(−)-2-phenyl 2-(dimethylaminoethoxy)-1,7,7-trimethyl-bicyclo[2.2.1]heptane], the “patients experiencing orgastic dysfunction (UKU scale)” value (after 8-week treatment with deramciclane 15 mg b.i.d., baseline 21% of 53 patients) is reported as 12%. In addition, the “number of patients with decreased libido” value (deramciclane 15 mg b.i.d. (=30 mg/day), n=53) is recorded as “none” and the “number of patients with decreased libido” value (deramciclane 30 mg b.i.d. (=60 mg/day), n=54) is on record as “none”.

For the origin of these results see patent US20020099098A1, “Method for treating sexual disorders” (priority 2001, published 2002).
